Assay [1] has as its target T1, LIM kinase 1 (LIMK1) (Homo sapiens, UniProt P53667). Briefly: apparent Km determination in luciferase ATP-depletion kinase assay with cofilin. The class given is biochemical.
Assay [2] concerns the target T1, LIM kinase 1 (LIMK1). In words: Kinase Glo luciferase ATP-depletion assay with recombinant cofilin, […] ATP. The assay is classed as biochemical. (In general: Kinase-Glo reads ATP consumption through a luciferase reaction.)

T1 sequence (P53667 339-604 limits assumed): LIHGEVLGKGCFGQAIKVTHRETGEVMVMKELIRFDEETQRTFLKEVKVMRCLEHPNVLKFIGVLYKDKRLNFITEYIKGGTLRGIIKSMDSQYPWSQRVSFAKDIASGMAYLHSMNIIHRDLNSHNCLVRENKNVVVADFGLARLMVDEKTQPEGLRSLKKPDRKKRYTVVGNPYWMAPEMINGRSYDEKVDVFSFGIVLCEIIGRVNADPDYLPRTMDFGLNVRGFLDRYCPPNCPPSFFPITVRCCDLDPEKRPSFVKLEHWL

Turning to `Nc1ncnc2c1ncn2[C@@H]1O[C@H](COP(=O)(O)OP(=O)(O)OP(=O)(O)O)[C@@H](O)[C@H]1O` [ATP], the Km (usually the substrate concentration at which the rate is half of its maximum) in assay [1] lay in the range of 10 to 20 µM.

Consider `COc1c(C=O)c(O)cc2c1C(=O)c1ccccc1C2=O` [damnacanthal], for which, in assay [2], the IC50 (in general, the midpoint of a concentration-inhibition curve) worked out at 19 nM.

Source of the values: article PMC3935456 (Journal of biomolecular screening, 2011).
